Assay results reported in paper PMC7440666, “Cryo-EM structure of the human concentrative nucleoside transporter CNT3” (PLoS Biology, 2020).
Substitutions are numbered along the chain they refer to.

T1: hCNT3 (full-length wild-type) (Homo sapiens, UniProt Q9HAS3)
T1 construct: gene SLC28A3; full-length, C-terminal Strep-tag, codon-optimized cDNA, baculovirus/Sf9 expression, purified in DDM, homotrimer
T1 sequence (Q9HAS3 1-691): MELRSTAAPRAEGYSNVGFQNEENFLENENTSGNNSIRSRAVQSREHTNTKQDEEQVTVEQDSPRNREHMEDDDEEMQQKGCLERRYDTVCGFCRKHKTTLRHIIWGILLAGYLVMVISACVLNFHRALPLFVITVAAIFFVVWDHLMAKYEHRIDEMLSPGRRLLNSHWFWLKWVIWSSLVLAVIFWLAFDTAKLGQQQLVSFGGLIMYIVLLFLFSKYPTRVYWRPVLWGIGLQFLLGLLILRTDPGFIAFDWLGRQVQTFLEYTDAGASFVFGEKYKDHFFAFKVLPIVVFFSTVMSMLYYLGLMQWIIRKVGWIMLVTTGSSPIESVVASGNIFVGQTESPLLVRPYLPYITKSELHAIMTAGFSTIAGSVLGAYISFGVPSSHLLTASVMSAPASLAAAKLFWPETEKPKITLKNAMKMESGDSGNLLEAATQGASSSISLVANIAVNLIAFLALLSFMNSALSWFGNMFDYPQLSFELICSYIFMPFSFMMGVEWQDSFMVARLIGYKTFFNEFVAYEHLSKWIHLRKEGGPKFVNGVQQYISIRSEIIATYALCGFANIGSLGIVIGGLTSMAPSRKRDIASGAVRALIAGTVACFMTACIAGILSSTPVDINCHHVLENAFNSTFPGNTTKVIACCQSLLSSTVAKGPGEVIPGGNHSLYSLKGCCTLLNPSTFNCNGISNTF

T2: CNT3ins (Δ1–69) (Homo sapiens, UniProt Q9HAS3)
T2 construct: gene SLC28A3; lacks the 69 N-terminal residues, C-terminal Strep-tag, baculovirus/Sf9 expression, purified in DDM for ITC, homotrimer
T2 sequence (Q9HAS3 70-691): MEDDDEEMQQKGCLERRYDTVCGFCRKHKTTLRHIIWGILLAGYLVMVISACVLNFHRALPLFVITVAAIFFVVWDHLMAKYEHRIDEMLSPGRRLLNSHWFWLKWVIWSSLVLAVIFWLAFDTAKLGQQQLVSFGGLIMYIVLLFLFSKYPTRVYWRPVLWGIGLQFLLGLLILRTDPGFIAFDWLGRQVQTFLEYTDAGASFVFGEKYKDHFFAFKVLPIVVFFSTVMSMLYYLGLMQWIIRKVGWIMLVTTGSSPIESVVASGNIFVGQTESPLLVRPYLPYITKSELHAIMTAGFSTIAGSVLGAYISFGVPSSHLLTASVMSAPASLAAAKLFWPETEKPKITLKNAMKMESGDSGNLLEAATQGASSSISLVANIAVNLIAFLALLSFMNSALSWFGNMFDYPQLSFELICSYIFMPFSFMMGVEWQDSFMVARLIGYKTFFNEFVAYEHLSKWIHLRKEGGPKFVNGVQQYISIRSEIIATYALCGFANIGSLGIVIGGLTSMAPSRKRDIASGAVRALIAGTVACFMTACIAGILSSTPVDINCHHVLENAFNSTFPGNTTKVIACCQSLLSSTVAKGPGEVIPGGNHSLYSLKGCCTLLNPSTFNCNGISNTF

T3: hCNT3 (full-length wild-type) (Homo sapiens, UniProt Q9HAS3, N565A)
T3 construct: gene SLC28A3; full-length, C-terminal Strep-tag, codon-optimized cDNA, baculovirus/Sf9 expression, purified in DDM, homotrimer
T3 sequence (Q9HAS3 1-691 N565A): T1 sequence (Q9HAS3 1-691) with N565A

T4: hCNT3 (full-length wild-type) (Homo sapiens, UniProt Q9HAS3, E343A)
T4 construct: gene SLC28A3; full-length, C-terminal Strep-tag, codon-optimized cDNA, baculovirus/Sf9 expression, purified in DDM, homotrimer
T4 sequence (Q9HAS3 1-691 E343A): T1 sequence (Q9HAS3 1-691) with E343A

B1: CNT3ins, the truncated isoform (Δ1–69) of human concentrative nucleoside transporter 3 (hCNT3) (domain or fragment, UniProt Q9HAS3 70-691, looked up)
chain: T2 sequence (Q9HAS3 70-691)
notes: human concentrative nucleoside transporter 3 (hCNT3, SLC28A3), truncated isoform lacking the 69 N-terminal residues (Δ1–69); codon-optimised cDNA; density resolved for residues 100–614; also called CNT3ins (Δ1–69); SLC28A3; source: Sf9 insect cells (baculovirus, pFastBac1), purified (StrepTactin Sepharose, Superose 6 SEC) in digitonin or DDM

How the values were obtained:
[1] = target: T1, hCNT3 (full-length wild-type); test: isothermal titration calorimetry, one-site model; conditions: read-out: binding affinity
[2] = target: T2, CNT3ins (Δ1–69); test: isothermal titration calorimetry, one-site model; conditions: read-out: binding affinity
[3] = target: T3, hCNT3 (full-length wild-type); test: isothermal titration calorimetry, one-site model; type: binding
[4] = target: T4, hCNT3 (full-length wild-type); test: isothermal titration calorimetry, one-site model; conditions: read-out: binding affinity
[5] = target: the molecule itself; test: cryo-EM structure; purified CNT3ins (Δ1–69) at 6 mg/ml in 25 mM Tris pH 8.0, 150 mM NaCl, 0.1% digitonin; nucleoside-free; reconstruction with C3 symmetry

Row | Molecule | Kd [1] [µM] | Kd [2] [µM] | Kd [3] [µM] | Kd [4] [µM] | stoichiometry N [5]
1 | Nc1ccn([C@@H]2O[C@H](CO)[C@@H](O)[C@H]2O)c(=O)n1 [cytidine] | ~260 |  |  |  | 
2 | Cc1cn([C@H]2C[C@H](O)[C@@H](CO)O2)c(=O)[nH]c1=O [thymidine] | ~603 |  |  |  | 
3 | O=c1ccn([C@@H]2O[C@H](CO)[C@@H](O)[C@H]2O)c(=O)[nH]1 [uridine] | ~325 | ~368 | ~280 | ~1190 | 
4 | B1 |  |  |  |  | 3
